In patent US11634381B2, “RUNX2 transcription factor inhibitors and uses thereof” (University of Maryland, Baltimore, priority 2015, dated 2023):

Experiments:
[1] = test system: non-malignant cells (MCF10A, IEC-6, GES-1, C2C12); test: Cell growth assay in non-malignant cells; assay type: cell-based, human, rat, murine; conditions: 0˜100 μM, 24˜72 hrs
Experimental: Cells wereplated on 96-well (30,000 cells/well) or 24-well plates (50,000 cells/well). After CADD522 (0˜100 μM) addition, cells were incubated for 24˜72 hrs. Cells were stained with crystal violet (0.5% in Methanol:Acetic Acid=3:1) and washed with PBS. Crystal violet was solubilized in DMSO and measured in a microplate reader at 592 nm.

[2] = test system: breast cancer cells; test: Cell cycle analysis by flow cytometry; assay type: cell-based, human; conditions: 50 μM
Experimental: Cells (1×10^6 cells/ml) were starved in serum-free medium for 24 hrs, and released in 10% serum-medium with or without compound 1 (50 μM) for 16-24 hrs for cell cycle transition. Cells were then fixed in 70% ethanol at 4° C. for 1 hr, resuspended in 1 ml PBS containing 20 μg/ml propidium iodide, 20 μg/ml RNase A, incubated for 30 min at room temperature, and analyzed with a Becton Dickinson LSR-II at the Flow Cytometry Core Laboratory at the University of Maryland. Ten thousand events per sampl were collected and analyzed using the Cell-Quest (BD Biosciences).

[3] = test system: BC cell lines; test: Clonogenic survival assay; assay type: cell-based, human; conditions: 50 μM
Experimental: Cells were plated on 6-well plates (200˜500 cells/well). After compound 1 (50 μM) treatment, cells were incubated for 2-3 weeks without changing media. Colonies were fixed in Methanol-Acetic Acid solution (3:1) and stained with crystal violet (0.5%). After washing, colonies were photographed and counted.

[4] = test system: MCF7 RUNX2 Tet.OFF cells; test: Suspension culture tumorsphere formation; assay type: cell-based, human; conditions: for tumorsphere diameter: 50 μM compound 1, 12 days
Experimental: MCF7 Tet.OFF cells were grown in the presence (+Dox, RUNX2 negative) or absence (−Dox, RUNX2 positive) of doxycycline for 3 days. Cells were then scraped and counted. 60,000 cells were plated in each well of a 6-well ultra-low attachment plate (Corning; 3471) in Promocell Basal Medium (Promocell; c-22211) complete with Supplement Mix (Promocell; c-39216). Cells were then treated with or without 2 ng/mL TGFβ (R&D Systems; 240-B-002). After growth for 10-15 days, wells were photographed and tumorsphere diameters were measured from photographic images (mm). Colony diameters were calculated using the formula: (L+W)/2. Representative photographs were obtained at 4× magnification. […] For TAZ siRNA knockdown experiments, TAZ siRNA was transfected (as below) into MCF7 Tet.OFF cells and 24 hr later cells were scraped and placed into suspension as described above. Small-Interfering RNA (siRNA) pool targeting RUNX1, RUNX2, and non-targeting control were purchased from Dharmacon, and transfected into cells using RNAiMAX Reagent (Invitrogen). Western blot analysis was performed 48 hrs after transfection.

[5] = test system: MCF7-tet-off (-Doxy), MDA-231, MDA-468 and MCF7 cells; test: Tumorsphere assay; assay type: cell-based, human; conditions: 50 μM
Experimental: Single cell suspensions (100,000 cells/well) wereplatedin 6-well ultra-low attachment plates (Corning) with 5 ml of EGM-2 supplemented with bullet kit (Lonza) and 2% FBS. compound 1 (50 μM) was added at the day of the plating or 4 days after plating. Tumorspheres were continuously photographed for 18 days and counted at the final day. Spheres were counted at 9 fields per well and averaged from triplicate.

[6] = test system: RUNX2 responsive genes; test: Q-RT-PCR of RUNX2 responsive genes; assay type: cell-based, human; conditions: 50 μM
Experimental: Total RNA was extracted using TRIzol (Life Technologies). One […] of total RNA was reverse transcribed with oligo-(dT) primer using the SuperScript first-strand synthesis system (Invitrogen) to synthesize cDNA. One μl of each cDNA was used for real-time RT-PCR using QuantiFast SYBR Green PCR Kit […]. mRNA expression of gene of interest relative to β-actin was calculated based on the threshold cycle (Ct) as 2^−D(DCt) method.

[7] = test system: BC cells; test: Glucose consumption and lactate production; assay type: cell-based, human
Experimental: For measurement of glucose level, cells (100,000/well) were plated in 24-well plates and incubated overnight. Cells were treated with compound 1 (50 μM) in phenol red-free growth medium and further incubated for 6 hrs or 24 hrs. The culture medium was collected and filtered through a 0.22 μm pore membrane. Glucose level in the medium was measured using Amplex Red Glucose/Glucose Oxidase Assay Kit (Invitrogen) as per manufacturer's instructions. For lactate level, cells were treated with compound 1 for 24 hrs, and the medium was washed and replaced with HEPES-buffered Krebs-Ringer solution (Boston BioProducts) supplemented with 10 mM Glucose. Cells were incubated for 30 min, and the medium was collected and filtered through a 0.22 μm pore membrane. Lactate level in the medium was measured using Lactate Assay Kit (Sigma-Aldrich) as per manufacturer's instructions. Cell growth assays using crystal violet staining were performed to verify equal number of cells and no significant difference was found in 24 hrs of compound 1 treatment (data not shown).

[8] = test system: Lats1/2; test: Lats1/2 phosphorylation (Hippo signaling); assay type: cell-based, human; conditions: compound 1, 24 hours
Experimental: In FIG. 22A HCC1428 luminal BC cells that express E-Cadherin were treated with recombinant soluble E-Cadherin (rsE-Cad) for 24 hr and total cell extracts were analyzed for phosphorylation of the Lats1/2 tumor suppressors. Phospho.Lats1/2 and total Lats1/2 levels declined with rsE-Cad treatment consistent with TAZ translocation to the nucleus, where it acts as an oncogene with RUNX2. […] MCF7 cells expressing RUNX2 (Tet.OFF) were treated with compound 1 drug for 24 hours and total cell extracts were analyzed for phosphp.Lats1/2, total Lats1/2, and RUNX2 expression.

[9] = test system: MDA-231, MDA-468, MCF7 and BT474 breast cancer cells; test: ROS production luminometer assay; assay type: cell-based, human; conditions: 0-100 μM, 6-18 hours
Experimental: In FIG. 27A MDA-231, MDA-468, MCF7 and BT474 breast cancer cells were treated with compound 1 (0-100 μM) for 6-18 hours and ROS production in response to H2O2 treatment (2 mM) was measured with luciferase-based luminometer assay. In FIG. 27B T47D-Vector control or T47D-RUNX2-clone #10 overexpressing cells; MCF7-Vector Control or RUNX2-clone #2 overexpressing cells were treated with 50 μM compound 1 for 6 hours.

O=C(O)C1C2C=CC(C2)C1C(=O)Nc1ccc(Cl)c(Cl)c1 (centres unmarked) [compound 1, 3-(N-(3,4-dichlorophenyl)carbamoyl)-5-norbornene-2-carboxylic acid]
sensitivity of non-malignant cells versus BC cell lines [1]: much lower
cell cycle distribution [2]: increased cell populations at the G1 phase with reduction at the S phase
clonogenic survival ([3]; 2˜3 weeks, 11 out of 13 BC cells): less than 50%
clonogenic cell survival ([3]; 2˜3 weeks, BT549, HCC70, MDA-468, MCF7, HCC361, BT474): less than 10%
clonogenic survival ([3]; 2˜3 weeks, MDA-231 and Hs578t): > 50%
clonogenic survival ([3]; 2˜3 weeks, MDA-468 and BT474): did not survive
clonogenicity ([3]; T47D-Empty and T47D-RUNX2 cells, 14 days): dramatically diminished
tumorsphere diameter ([4]; RUNX2 negative cells): 6.37±1.78 mm
fold inhibition of tumorsphere diameter relative to vehicle ([4]; RUNX2 positive cells, 50 μM compound 1): ~4 fold
tumorsphere diameter ([4]; RUNX2 positive cells): 4.83±1.87 mm
size and number of tumorspheres [5]: dramatically decreased
level of Sirt6 mRNA ([6]; MDA-231 cells, 6 hrs): increased
transcriptional levels of Glut-1 and LDHA ([6]; MDA-231 cells, 6 hrs): reduced
mRNA expression levels of MMP13, VEGF, and MMP9 ([6]; ectopic RUNX2-expressing MCF7 and T47D cells, 72 hrs): repressed
RUNX2-increased mRNA level of Glut-1 and LDHA ([6]; ectopic RUNX2-expressing T47D and MCF7 cells, 72 hrs): significantly inhibited
lactate concentration ([7]; 50 μM): significantly reduced
glucose consumption ([7]; MDA-231 cells): Slight but insignificant inhibition
glucose level in the medium ([7]; RUNX2-expressing MCF7 and T47D, MCF7 and MDA-468 cells, 6 hrs and 24 hrs): increased
phosphorylation of the Lats1/2 tumor suppressors [8]: increase in phosphorylation
mitochondrial ROS production [9]: increase in mitochondrial ROS production
